Here are results for 10 compounds from patent US7115279B2, “Pharmaceutical compositions of cholesteryl ester transfer protein inhibitors” (priority 2000, dated 2006).

SMILES strings stand for the structures.

What all share (assay type): physicochemical
Series [1] can be described thus: in vitro dissolution test, microcentrifuge method, MFDS (Example 5, Drug 1 dispersions). As to conditions: model-fasted duodenal solution (MFDS), pH 6.5, maximum concentration of Drug 1 in solution during the 90-minute test, TCmax 100 or 500 μg/mL. As to the method: The spray-dried dispersions of Examples 1 to 4 were evaluated in in vitro dissolution tests using a microcentrifuge method. In this method, 1 mg of the spray-dried dispersions was added to a 1.5-mL microcentrifuge tube. The tube was placed in a 37° C. sonicating bath, and 1 mL of a model-fasted duodenal solution (MFDS) (comprising sodium taurocholate/1-palmitoyl-2-oleoyl-sn-glycero-3-phosphocholine (NaTC-POPC) in phosphate-buffered saline (PBS) at pH 6.5 and 290 mOsm/kg) was added. The samples were quickly mixed using a combination of vortex mixer and sonication for about 90 seconds. The theoretical maximum concentration (“TCmax”) of drug for Examples 1–3 if all the drug dissolved was 100 μg/mL, while for Example 4 the TCmax was 500 μg/mL. The samples were centrifuged at 13,000 G at 37° C. for 1 minute. The resulting supernatant solution was then sampled (100 μL) and diluted with 200 μL methanol and then analyzed by HPLC. The tubes were then mixed on the vortex mixer and allowed to stand undisturbed at 37° C. until the next sample. Samples were collected at 3, 10, 30, 60, and 90 minutes and for Examples 1 and 2 at 1200 minutes.
For Control 1, an in vitro test was performed using the procedure described above, except that 0.18 mg of crystalline Drug 1 was placed in a microcentrifuge tube and mixed with 1.8 mL of MFDS.

Series [2] can be described thus: in vitro dissolution test, microcentrifuge method, PBS (Example 8, Drug 2 dispersions). As to conditions: for Drug 2 Concentration / AUC: PBS pH 6.5, 37° C.; for Drug 2 Concentration: dose about 1000 μg/mL. As to the method: The spray-dried dispersions of Examples 6 and 7 were evaluated in an in vitro dissolution test using a microcentrifuge method. In this test, the spray-dried dispersion was added to a microcentrifuge tube for a Drug 2 dose of about 1000 μg/mL (7.2 mg for Example 6, 18 mg for Example 7). The tube was placed in a 37° C. sonicating bath, and 1.8 mL phosphate buffered saline (PBS) at pH 6.5 and 290 mOsm/kg was added. The samples were quickly mixed using a vortex mixer for about 60 seconds. The samples were centrifuged at 13,000 G at 37° C. for 1 minute. The resulting supernatant solution was then sampled and diluted 1:6 (by volume) with methanol and then analyzed by high-performance liquid chromatography (HPLC). The contents of the tubes were mixed on the vortex mixer and allowed to stand undisturbed at 37° C. until the next sample was taken. Samples were collected at 4, 10, 20, 40, 90, and 1200 minutes. […]

Series [3] can be described thus: in vitro dissolution test, receptor solution MFDS (Example 17, Drug 2 dispersions). As to conditions: TCmax 400 or 100 μg/mL, read-out: Cmax, 90. As to the method:
The spray-dried dispersions of Examples 6 and 7 were evaluated in an in vitro dissolution test using a microcentrifuge method. In this test, the spray-dried dispersion was added to a microcentrifuge tube for a Drug 2 dose of about 1000 μg/mL (7.2 mg for Example 6, 18 mg for Example 7). The tube was placed in a 37° C. sonicating bath, and 1.8 mL phosphate buffered saline (PBS) at pH 6.5 and 290 mOsm/kg was added. The samples were quickly mixed using a vortex mixer for about 60 seconds. The samples were centrifuged at 13,000 G at 37° C. for 1 minute. The resulting supernatant solution was then sampled and diluted 1:6 (by volume) with methanol and then analyzed by high-performance liquid chromatography (HPLC). The contents of the tubes were mixed on the vortex mixer and allowed to stand undisturbed at 37° C. until the next sample was taken. Samples were collected at 4, 10, 20, 40, 90, and 1200 minutes.
The dispersions of Examples 9–16 were also evaluated in an in vitro dissolution test using receptor solutions of MFDS using the procedures outlined in Example 8.
For Control 3, an in vitro dissolution test was performed using the procedure described above except that 0.72 mg of crystalline Drug 2 was used.

The nature of series [4]: in vitro dissolution test, microcentrifuge method, PBS (Example 29, Drug 3 dispersions). As to conditions: phosphate-buffered saline, pH 6.5, TCmax 400 μg/mL, read-out: Cmax, 90. As to the method: The spray-dried dispersions of Examples 21–28 were evaluated in an in vitro dissolution test using a microcentrifuge method. In this method, 7.2 mg of each SDD was added to a 2-mL microcentrifuge tube. The tube was placed in a 37° C. sonicating bath, and 1.8 mL of a phosphate-buffered saline (PBS) solution at pH 6.5 and 290 mOsm/kg was added, resulting in a TCmax of 400 μg/mL. The samples were quickly mixed using a combination of vortex mixer and sonication for about 90 seconds. The samples were centrifuged at 13,000 G at 37° C. for 1 minute. The resulting supernatant solution was then sampled and diluted 1:6 (by volume) with methanol and then analyzed by HPLC. The tubes were then mixed on the vortex mixer and allowed to stand undisturbed at 37° C. until the next sample. Samples were collected at 4, 10, 20, 40, 90 and 1200 minutes.
For Control 5, an in vitro dissolution test was performed using the procedure described above, except that 0.72 mg of non-crystalline Drug 3 was placed in a microcentrifuge tube and mixed with 1.8 mL of PBS.

Series [5] is described as follows: in vitro dissolution test, microcentrifuge method, PBS (Example 42, Drugs 4-9 dispersions). As to conditions: PBS pH 6.5, 37° C.; for Cmax: phosphate-buffered saline, read-out: Cmax, 90. As to the method:
In this method, 15 mg of each SDD was added to a 2-mL microcentrifuge tube. The tube was placed in a 37° C. sonicating bath, and 1.5 mL of a phosphate-buffered saline (PBS) solution at pH 6.5 and 290 mOsm/kg) was added, resulting in a TCmax of 1000 μg/mL. The samples were quickly mixed using a combination of vortex mixer and sonication for about 90 seconds. The samples were centrifuged at 13,000 G at 37° C. for 1 minute. The resulting supernatant solution was then sampled and diluted 1:6 (by volume) with methanol and then analyzed by HPLC. The tubes were then mixed on the vortex mixer and allowed to stand undisturbed at 37° C. until the next sample. Samples were collected at 4, 10, 20, 40, and 90 minutes.
For Controls 6–11, an in vitro dissolution test was performed using the procedure described above, except that 1.5 mg of non-crystalline drug was placed in a microcentrifuge tube and mixed with 1.5 mL of PBS.

For orientation: Cmax means the highest concentration seen after dosing. In general, AUC refers to the area under the concentration-time curve, a measure of exposure.

For `COC(=O)N(Cc1cc(C(F)(F)F)cc(C(F)(F)F)c1)[C@@H]1C[C@H](C2CC2)N(C(=O)OC(C)C)c2ccc(C(F)(F)F)cc21` [Control 1, [2R,4R] 4-[(3,5-bis-trifluoromethyl-benzyl)-methoxycarbonyl-amino]-2-cyclopropyl-6-trifluoromethyl-3,4-dihydro-2H-quinoline-1-carboxylic acid isopropyl ester], in series [1], the Cmax at 100 μg/mL was 900 ng/mL.
Regarding `CCOC(=O)N1c2ccc(C(F)(F)F)cc2[C@@H](N(Cc2cc(C(F)(F)F)cc(C(F)(F)F)c2)C(=O)OC)C[C@H]1CC` [Control 2, [2R,4S] 4-[(3,5-bis-trifluoromethyl-benzyl)-methoxycarbonyl-amino]-2-ethyl-6-trifluoromethyl-3,4-dihydro-2H-quinoline-1-carboxylic acid ethyl ester], the “Drug 2 Concentration” value is 0 µg/mL in series [2] (time 0 min); 6 µg/mL in series [2] (time 4 min); below 1 µg/mL in series [2] (time 10 min); below 1 µg/mL in series [2] (time 20 min); 3 µg/mL in series [2] (time 40 min); below 1 µg/mL in series [2] (time 90 min). Moreover, in series [2] (time 1200 min), the “Drug 2 Concentration” value was below 1 µg/mL. Also, the AUC was found to be 0 µg·min/mL in series [2] (time 0 min); 12 µg·min/mL in series [2] (time 4 min); 30 µg·min/mL in series [2] (time 10 min); 30 µg·min/mL in series [2] (time 20 min); 60 µg·min/mL in series [2] (time 40 min); 135 µg·min/mL in series [2] (time 90 min). In series [2] (time 1200 min), this compound registered an AUC of 135 µg·min/mL. The AUC90 in series [2] (area under the aqueous concentration versus time curve after 90 minutes, PBS) stood at 135 µg·min/mL. This compound yielded a Cmax at 1000 μg/mL in series [2] (phosphate buffered saline (PBS), pH 6.5, maximum concentration of Drug 2 in solution during the first 90 minutes, PBS) of 6000 ng/mL.
As to `CCOC(=O)N1c2ccc(C(F)(F)F)cc2[C@@H](N(Cc2cc(C(F)(F)F)cc(C(F)(F)F)c2)C(=O)OC)C[C@H]1CC` [Control 3, [2R,4S] 4-[(3,5-bis-trifluoromethyl-benzyl)-methoxycarbonyl-amino]-2-ethyl-6-trifluoromethyl-3,4-dihydro-2H-quinoline-1-carboxylic acid ethyl ester], the Cmax in series [3] was below 1000 ng/mL.
For the compound `CCCOC(=O)N1c2ccc(C(F)(F)F)cc2[C@@H](N(Cc2cc(C(F)(F)F)cc(C(F)(F)F)c2)C(=O)OC)C[C@H]1CC` [Control 5, [2R,4S] 4-[(3,5-bis-trifluoromethyl-benzyl)-methoxycarbonyl-amino]-2-ethyl-6-trifluoromethyl-3,4-dihydro-2H-quinoline-1-carboxylic acid propyl ester], the Cmax in series [4] is below 100 ng/mL.
As for `CCOC(=O)N1c2cc(OC)c(OC)cc2[C@@H](N(Cc2cc(C(F)(F)F)cc(C(F)(F)F)c2)C(=O)OC)C[C@H]1C` [Control 6, [2R,4S] 4-[(3,5-bis-trifluoromethyl-benzyl)-methoxycarbonyl-amino]-6,7-dimethoxy-2-methyl-3,4-dihydro-2H-quinoline-1-carboxylic acid ethyl ester], the Cmax in series [5] (TCmax 1000 μg/mL) was below 1000 ng/mL.
With `CCOC(=O)N1c2cc(CC)c(CC)cc2[C@@H](N(Cc2cc(C(F)(F)F)cc(C(F)(F)F)c2)C(=O)OC)C[C@H]1C` [Control 7, [2R,4S] 4-[(3,5-bis-trifluoromethyl-benzyl)-methoxycarbonyl-amino]-6,7-diethyl-2-methyl-3,4-dihydro-2H-quinoline-1-carboxylic acid ethyl ester], the Cmax in series [5] (TCmax 1000 μg/mL) was below 1000 ng/mL.
As for `CCOC(=O)N1c2cc3c(cc2[C@@H](N(Cc2cc(C(F)(F)F)cc(C(F)(F)F)c2)C(=O)OC)C[C@H]1C)CCC3` [Control 8, [2R,4S] 4-[(3,5-bis-trifluoromethyl-benzyl)-methoxycarbonyl-amino]-2-methyl-2,3,4,6,7,8-hexahydro-cyclopenta[g]quinoline-1-carboxylic acid ethyl ester], in series [5] (Time 0 min), the AUC came out at 0 µg·min/mL and the Concentration is 0 ng/mL. Further, the Cmax in series [5] (TCmax 1000 μg/mL) was below 1000 ng/mL.
Regarding `CC[C@@H]1C[C@H](N(Cc2cc(C(F)(F)F)cc(C(F)(F)F)c2)C(C)=O)c2cc(C(F)(F)F)ccc2N1C(=O)OC(C)C` [Control 9, [2R,4S] 4-[acetyl-(3,5-bis-trifluoromethyl-benzyl)-amino]-2-ethyl-6-trifluoromethyl-3,4-dihydro-2H-quinoline-1-carboxylic acid isopropyl ester], in series [5] (TCmax 1000 μg/mL), the Cmax was below 1000 ng/mL.
Regarding `COC(=O)N(Cc1cc(C(F)(F)F)cc(C(F)(F)F)c1)[C@H]1C[C@@H](C2CC2)N(C(=O)OC(C)C)c2ccc(C(F)(F)F)cc21` [Control 10, [2S,4S] 4-[(3,5-bis-trifluoromethyl-benzyl)-methoxycarbonyl-amino]-2-cyclopropyl-6-trifluoromethyl-3,4-dihydro-2H-quinoline-1-carboxylic acid isopropyl ester], in series [5] (TCmax 1000 μg/mL), the Cmax was below 1000 ng/mL.
Turning to `CC1(C)Cc2nc(C3CCCC3)c([C@@H](F)c3ccc(C(F)(F)F)cc3)c(-c3ccc(F)cc3)c2[C@@H](O)C1` [Control 11, [3S,5S] 2-cyclopentyl-4-(4-fluoro-phenyl)-3-[fluoro-(4-trifluoromethyl-phenyl)-methyl]-7,7-dimethyl-5,6,7,8-tetrahydro-quinolin-5-ol], the “Cmax, 90” value in series [5] (TCmax 1000 μg/mL) is below 1000 ng/mL.
